This assay relates to Primary human keratinocytes. Description: Mitogenesis assay (3H-thymidine incorporation, DNA synthesis) in keratinocytes. To be noted: for 3H-thymidine uptake (mitogenesis) of Lys23-substituted 9-mers versus controls: keratinocytes, negative control no peptide, positive control K-GFD. It counts as cell-based. How it is done:
FIG. 1 is a bar graph which represents the effect of various uPA peptides on DNA synthesis in keratinocytes. Various concentrations of GFD peptides were tested in order to compare the mitogenic activity. After 24 h incubation with a peptide and 3H-thymidine, incorporated radioactivity was measured as described herein. Five concentrations were used for each peptide. For a given peptide the uppermost bar of the five represents 0.1 μM, the next lower bar 0.33 μM, the next lower bar 1 μM, the next lower bar 3.3 μM, and the lowest bar, 10 μM.
Mitogenesis Assay The effect of a peptide on mitogenesis was determined as a function of DNA synthesis as follows. Peptides (in phosphate buffered saline (PBS)) were added to the monolayers (grown as described herein) to a final concentration of either 0.1 μM, 0.33 μM, 1.0 μM, 3.3 μM, or 10 μM. 5 μL of ^3 H-thymidine (10 μCi/ml; Amersham, Arlington Heights, Ill.) in 150 μL KGM was added to the cultures concurrent with the peptides, and cells were harvested and lysed after 24 hours at 37° C. in distilled H2 O using a Tomtec cell harvester, and fixed with 70% ethanol. The lysed cells were then transferred to a nylon filter (Amersham, Arlington Heights, Ill.), Beta plate scintillation fluid was added (LKB), and radioactivity was measured using a Wallac 1205 beta plate counter. Control samples, incubated in the presence of phosphate-buffered saline (PBS) and ^3 H-thymidine gave control levels of radioactivity of approximately 400 cpm.
Cell Culture Primary human keratinocytes (Clonetics, Calif.) were cultured in 96-well plates (Corning, N.Y.) in serum-free medium (KGM medium, Clonetics) to 70-80% confluency on a monolayer culture at 37° C. in 5% C02.
In general terms: Uptake of a labelled nucleoside into DNA is a usual measure of proliferation.

Experimental findings from US6120765A, “Urokinase plasminogen activator fragments” (Shiseido Co. Ltd., priority 1993, dated 2000) are described below.

Where no end group is shown, it is not given here.

As to “SNKYFSNIH [9-mer, K-GFD printed in b183 with Asp instead of Asn]”, the “3H-thymidine uptake (mitogenesis) of Lys23-substituted 9-mers versus controls” value is listed as “increased uptake as compared with untreated cells”. In addition, under “24 h, tested 0.1-10 μM”, the “concentration giving maximum level of mitogenic activity” value stood at 1 µM and the “lowest concentration effective in stimulating mitogenesis” value was 0.33 µM.
Take SNEYFSDIH [E-GFD]: the “3H-thymidine uptake (mitogenesis) of Lys23-substituted 9-mers versus controls” value is listed as “inhibited mitogenesis”.
As for TCVSNKYFSNIH [12-mer], the “effect on keratinocyte stimulation” value (at other concentrations than 1 μM (0.1, 0.33, 3.3, 10 μM)) is recorded as “little, if any, effect”. Further, the “mitogenic activity (3H-thymidine incorporation)” value (only at 1 μM, 24 h) is reported as “demonstrated mitogenic activity”.
For SNRYFSDIH [R-GFD], the “3H-thymidine uptake (mitogenesis) of Lys23-substituted 9-mers versus controls” value is given as “greatly increased”.
As for TCVSNKYFSNIHWCN [15-mer], the “concentration giving maximum level of mitogenic activity” value (24 h, tested 0.1-10 μM) was found to be 3.3 µM.
Consider SNAYFSDIH [A-GFD], for which the “3H-thymidine uptake (mitogenesis) of Lys23-substituted 9-mers versus controls” value is recorded as “little different from negative control cells”.
